Common to all, as to assay type: cell-based
A short description of data set [1]: MTT assay, HEL299 fibroblast. The settings on record: human. From the text:
(§1) Please refer to FIG. 4C, various cell viabilities of the HEL299 cell lines can be obtained through the MTT assay while the compounds No. 1˜30 are used to treat HEL299 cell lines, wherein HEL299 cell lines are fibroblast.

Another data set deals with HEL299 fibroblast. Put plainly: MTT assay, HEL299 fibroblast.
Excerpt: as §1
A general note: Tetrazolium assays rely on reduction of a dye to a coloured formazan, in cell work by metabolically active cells.

In the next data set the test system is A3 cell lines. In words: MTT assay, A3 cell lines (lung cancer stem cell). From the text: Please to FIG. 4B, various cell viabilities of the A3 cell lines can be obtained through the MTT assay and illustrated in FIG. 4B while the compounds No. 1˜30 are used to treat A3 cell lines, wherein A3 cell lines are lung cancer stem cell.
The test system of another data set is A control cell lines. Put plainly: MTT assay, A control cell lines (lung cancer cell). From the text:
Please refer to Table 1 and FIGS. 4A-4C. According to a MTT assay (Table 1), various cell viabilities of the A control cell lines can be obtained and illustrated in FIG. 4A while the compounds No. 2˜30 are used to treat A control cell lines, wherein A control cell lines are lung cancer cell.

Structures are written as SMILES.

The record followed here is patent publication US8410161B2, “Thioxanthone ring system derivatives” (National Defense Medical Center, priority 2010, dated 2013).

Turning to `CC(C)Sc1ccc2c(=O)c3ccccc3sc2c1Cl` [No. 4, 4-Chloro-3-(isopropylthio)-9H-thioxanthen-9-one], in data set [1], the viability is 103%. Besides, the “cytotoxicity effect on the normal fibroblast (in words)” value with HEL299 fibroblast is on record as “without the cytotoxicity effect”. Also, in the data set on A3 cell lines, the “cell viabilities of A3 cell lines (MTT assay)” value amounted to 56.1%. In the data set with A3 cell lines (summary of MTT cell viabilities), the “inhibition effect on A3 cell line (in words)” value is on record as “inhibition effect”. In the data set on A control cell lines, the “cell viabilities of A control cell lines (MTT assay)” value is 91.1 ± 2.02%.

Broadly, the viability is a read-out of living cells in per cent, often relative to untreated cells.
